Experimental data as given in patent publication US8409550B2, “Method for treating skin with retinoids and retinoid boosters” (Unilever Home & Personal Care, USA, Division of Conopco, …, priority 2000, dated 2013).
Values joined by “and” are separate entries in the source; they are usually repeats but may differ in a detail not shown here. Equal entries are not always repeated. Where two headings read alike, the source gives them in different places.

Tested on: transglutaminase (TGase I)
Assay: Transglutaminase (Tgase) ELISA assay in cultured keratinocytes with retinol and boosters
Format: cell-based, human
Conditions: for TG as % C Compd 2 / TG as % C, Compd 3 / TG as % C Compd 1: concentration one log below IC20; for TG as % C, Compd 3: Compound 3 alone; for Tgase levels (Mean): with 10^-7 M retinol; for IC20: IC20 (80% of control)
[1] = Compound 2 alone, in the presence of 10^-7M retinol
[2] = in the presence of 10^-7M retinol
[3] = Compound 1 alone, in the presence of 10^-7M retinol
[4] = compound tested individually in the presence of 10^-7 M retinol
[5] = Tgase inhibition, compound tested individually in the presence of 10^-7 M retinol, read-out: IC50

Structure (SMILES) | TG as % C Compd 2 [1] [% C] | TG as % C, Compd 3 [2] [% C] | TG as % C Compd 2 (compound 2 alone, with retinol) | IC20 [4] [µM] | further results
O=C1CCc2ccccc2N1 | 90 | 90 |  |  | 
Nn1nnc2ccccc21 | 105 | 105 | 105 % C and 126 % C |  | TG as % C Compd 2 (compound 2 alone, with retinol, listed as Aminobenzotriazole): 98 % C
CCCCCCCC(=O)OC[C@H](COP(=O)(O)OCCN)OC(=O)CCCCCCC [1,2-dioctanoyl-sn-glycero-3-phosphoethanolamide] |  |  |  |  | TG as % C Compd 1 [3]: 81 % C; Tgase levels (Mean) (booster 1.6E−04 Molar): 58.1 % of control; Tgase levels (Mean) (booster 1.78E−05 Molar): 104 % of control; Tgase levels (Mean) (booster 1.79E−9 Molar): 82 % of control; Tgase levels (Mean) (booster 1.98E−06 Molar): 110 % of control; Tgase levels (Mean) (booster 2.19E−09 Molar): 88.6 % of control; Tgase levels (Mean) (booster 4.39E−08 Molar): 127.3 % of control; Tgase levels (Mean) (booster 5.33E−05 Molar): 95.4 % of control; Tgase levels (Mean) (booster 5.93E−06 Molar): 129 % of control; Tgase levels (Mean) (booster 6.58E−07 Molar): 92.8 % of control; Tgase levels (Mean) (booster 8.78E−09 Molar): 119 % of control; TG as % C Compd 1 (compound 1 alone, with retinol): 123 % C and 95 % C and 106 % C
CCCCCCCCCCCCCCCCC(O)C(=O)O (centres unmarked) [2-hydroxysteric acid, 2-Hydroxystearic acid] | 83 |  |  |  | TG as % C Compd 1 (compound 1 alone, with retinol): 92 % C
O=C1CCc2ccccc2N1 [3,4-dihydro-2 quinolinone, 3,4,-Dihydro-2(1H)-quinolinone(Hydrocarbostyril)] |  |  | 102 % C |  | 
O=c1c2cccc3cccc(c32)c2nc3ccccc3n12 [7H-Benzimidazo[2,1-a]Benz[de]-isoquinolin-7-one] |  | 94 |  | 0.469 | 
CCCCCCC(O)CCCCCCCCCCC(=O)O (centres unmarked) [12-Hydroxystearic Acid] |  | 95 |  | 14.5 | IC50 (Homo sapiens, Keratinocyte, B4 table, with 10^−7 M retinol, read-out: Overall TG (IC 50)): 29.1 µM
COc1cc(NS(C)(=O)=O)ccc1Nc1c2ccccc2nc2ccccc12 [Amsacrine, reference compound] | 79 |  |  | 3.3 | TG as % C Compd 1 [3]: 79 % C; TG as % C Compd 1 (compound 1 alone, with retinol): 102 % C
CCCCC/C=C\C/C=C\C/C=C\C/C=C\CCCC(=O)[O-].[Na+] [Arachidonic Acid (Na+ salt)] |  | 78 |  |  | 
O=c1ccc2ccccc2o1 [Coumarin] |  | 80 | 96 % C |  | 
CCCCCCCC/C=C/CCCCCCCC(=O)O [Elaidic Acid] |  | 93 | 144 % C | 58.8 | TG as % C Compd 1 [3]: 93 % C; IC50 [5]: 65 µM
O=C(O)CCCCCCCCCCCCCCC(=O)O [Hexadecanedioic Acid] | 90 |  | 125 % C | 84 | IC50 [5]: 130 µM
CCCCCCCCCCCCCCCC(=O)O [Hexadecanoic acid] |  |  | 95 % C |  | 
CCCCCCCCCCC(O)C(=O)NCCO (centres unmarked) [Hydroxyethyl-2-Hydroxy-C12 Amide, N-Hydroxyethyl-2-hydroxydodecyl amide] |  |  |  | 24 | IC50 (B1 table, booster concentration which with 10^−7 M retinol inhibits TGase by 50%, same values in the 19th table (Molar), read-out: Overall TG (IC 50)): 32.9 µM; IC50 [5]: 32.9 µM
Oc1ccc2ccccc2n1 [Hydroxyquinoline (Carbostyril), 2-Hydroxyquinoline(Carbostyril)] |  | 95 |  | 170 | IC50 (B5 table, with 10^−7 M retinol, read-out: Overall TG (IC 50)): 364 µM; IC50 [5]: 364 µM
CC(C)CCCCCCCCCCCCCCC(=O)O [Isostearic Acid] | 87 |  | 146 % C | 62.3 | 
